Here are results for 1 compound from publication PMC6934184, “Selective DNA-PKcs inhibition extends the therapeutic index of localized radiotherapy and chemotherapy” (The Journal of Clinical Investigation, 2019).

The target in this assay is T1, RAF1 (cRAF) Y340D Y341D (Homo sapiens, UniProt P04049, Y340D/Y341D).
T1 construct: purchased Thermo Fisher Scientific (Life Technologies) SelectScreen
The assay can be described thus: SelectScreen Z'LYTE. It is filed as biochemical. The note with it: ATP 100 µM. The essentials: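 Percent values come from Thermo SelectScreen profiling of NU5455, combining activity and binding assays. CSF1R was run in Z'LYTE format at Km app ATP, and CAMK1 in Adapta format with ATP listed at 10.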

T1 sequence (P04049 whole entry Y340D/Y341D): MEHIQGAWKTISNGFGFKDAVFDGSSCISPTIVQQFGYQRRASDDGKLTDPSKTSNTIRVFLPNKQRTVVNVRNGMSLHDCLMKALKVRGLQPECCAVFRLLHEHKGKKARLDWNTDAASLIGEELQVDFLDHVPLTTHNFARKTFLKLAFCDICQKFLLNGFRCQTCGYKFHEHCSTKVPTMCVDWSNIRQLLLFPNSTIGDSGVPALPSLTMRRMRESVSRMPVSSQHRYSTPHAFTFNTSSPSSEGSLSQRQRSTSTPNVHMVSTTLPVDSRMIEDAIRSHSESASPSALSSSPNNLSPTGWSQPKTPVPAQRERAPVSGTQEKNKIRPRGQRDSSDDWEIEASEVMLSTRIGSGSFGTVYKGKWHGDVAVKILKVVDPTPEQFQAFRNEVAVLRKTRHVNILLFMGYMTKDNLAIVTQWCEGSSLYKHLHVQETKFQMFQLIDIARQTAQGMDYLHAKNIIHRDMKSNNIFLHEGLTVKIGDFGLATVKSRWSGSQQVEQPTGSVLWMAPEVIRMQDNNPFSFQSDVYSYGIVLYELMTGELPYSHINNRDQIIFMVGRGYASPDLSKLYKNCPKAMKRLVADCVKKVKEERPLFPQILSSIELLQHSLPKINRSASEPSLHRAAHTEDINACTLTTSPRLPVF

For the compound `CN(C(=O)CN1CCOCC1)c1ccc2sc3c(-c4cccc5c(=O)cc(N6CC7CCC(C6)O7)oc45)cccc3c2c1` [NU5455], the inhibition (usually the drop in the measured response relative to a control, in per cent) at 1 µM worked out at 7.9%.
